# Assay results: patent US10377717B2, “Farnesoid X receptor agonists and uses thereof” (Metacrine, Inc., priority 2015, dated 2019)
# Biological target: hFXR (Homo sapiens (Human), UniProt Q96RI1)
# Test: In Vitro FXR Assay (TK), luciferase reporter in transfected CV-1 cells
# Format: cell-based
# Conditions: TK-ECRE-luc reporter, hFXR/hRXR, 18 hrs, maximum efficacy <25% of Fexaramine control classified as '+'
# Protocol: CV-1 cells were seeded at a density of 2,000,000 cells in a T175 flask with DMEM+10% charcoal double-stripped FBS and incubated at 37° C. in 5% CO2 for 18 h (O/N).
# After 18 h of incubation, the medium in the T175 flask was changed with fresh DMEM+10% charcoal super-stripped serum. In a polypropylene tube, 2500 μL OptiMEM (Life Technologies, Cat #31985-062) was combined with expression plasmids for hFXR, hRXR, TK-ECRE-luc and pCMX-YFP. The tube was then briefly vortexed and incubated at room temperature for 5 minutes. Transfection reagent (X-tremeGENE HP from Roche, Cat #06 366 236 001) was added to the OptiMEM/plasmid mixture vortexed and incubated at room temperature for 20 minutes. Following incubation, the transfection reagent/DNA mixture complex was added to cells in the T175 flask and the cells were incubated at 37° C. in 5% CO2 for 18 h (O/N).
# Compounds were serially diluted in DMSO and added to transfected CV-1 cells. The cells were then incubated for 18 hrs. The next day cells were lysed and examined for luminescence.
# Sequence of hFXR (Q96RI1 whole entry): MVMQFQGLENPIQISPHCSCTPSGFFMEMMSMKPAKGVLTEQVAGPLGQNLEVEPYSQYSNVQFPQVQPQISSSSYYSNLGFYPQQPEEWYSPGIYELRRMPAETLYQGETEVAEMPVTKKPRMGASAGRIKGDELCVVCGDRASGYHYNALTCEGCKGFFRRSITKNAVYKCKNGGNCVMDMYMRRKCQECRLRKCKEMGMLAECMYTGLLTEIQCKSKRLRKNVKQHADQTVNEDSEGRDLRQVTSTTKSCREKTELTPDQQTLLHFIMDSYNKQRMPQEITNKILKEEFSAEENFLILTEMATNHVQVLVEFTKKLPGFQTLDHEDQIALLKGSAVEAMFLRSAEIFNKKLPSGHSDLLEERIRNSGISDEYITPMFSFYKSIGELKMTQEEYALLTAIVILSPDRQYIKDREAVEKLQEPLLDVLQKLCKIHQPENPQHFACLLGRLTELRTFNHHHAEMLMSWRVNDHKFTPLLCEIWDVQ
# Sequence of hFXR (P19793 whole entry partner): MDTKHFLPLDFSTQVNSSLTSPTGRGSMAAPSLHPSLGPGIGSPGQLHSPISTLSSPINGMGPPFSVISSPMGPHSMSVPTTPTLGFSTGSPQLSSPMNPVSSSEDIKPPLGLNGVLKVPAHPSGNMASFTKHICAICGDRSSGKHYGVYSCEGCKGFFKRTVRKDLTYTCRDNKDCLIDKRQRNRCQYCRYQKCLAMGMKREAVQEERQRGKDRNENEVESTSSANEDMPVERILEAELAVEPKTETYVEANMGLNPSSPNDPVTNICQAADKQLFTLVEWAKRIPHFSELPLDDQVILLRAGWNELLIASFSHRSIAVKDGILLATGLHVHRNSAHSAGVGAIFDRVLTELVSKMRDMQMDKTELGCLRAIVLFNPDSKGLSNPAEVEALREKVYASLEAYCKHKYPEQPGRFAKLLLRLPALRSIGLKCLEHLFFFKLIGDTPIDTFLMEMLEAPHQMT
row,Structure (SMILES),EC50
1,"COC(=O)c1ccc2c(N(Cc3ccc(-c4ccc(OC)c(F)c4F)cc3)C(=O)CC(C)(C)C)nccc2c1 [Compound 29, Methyl 1-(N-((2′,3′-difluoro-4′-methoxy-[1,1′-biphenyl]-4-yl)methyl)-3,3-dimethylbutanamido)isoquinoline-6-carboxylate]",≤ 1000 nM
2,"COC(=O)c1ccc2c(N(C[C@H]3CC[C@H](c4cccc(C)c4)CC3)C(=O)CC(C)(C)C)nccc2c1 [Compound 90, Methyl 1-(3,3-dimethyl-N-((trans-4-(m-tolyl)cyclohexyl)methyl)butanamido)isoquinoline-6-carboxylate]",≤ 1000 nM
3,"COc1ccc([C@H]2CC[C@H](CN(C(=O)CC(C)(C)C)c3nccc4cc(C(=O)OC(C)C)ccc34)CC2)cc1C [Compound 87, Isopropyl 1-(N-((trans-4-(4-methoxy-3-methylphenyl)cyclohexyl)methyl)-3,3-dimethylbutanamido)isoquinoline-6-carboxylate]",≤ 1000 nM
4,"COC(=O)c1cc2cccc(N(Cc3ccc(-c4ccc(N(C)C)cc4)cc3)C(=O)C3CCCCC3)c2[nH]1 [Compound 10, Methyl 7-(N-((4′-(dimethylamino)-[1,1′-biphenyl]-4-yl)methyl)cyclohexanecarboxamido)-1H-indole-2-carboxylate]",≥ 10000 nM
5,"COCCOc1ccc(-c2ccc(CN(C(=O)CC(C)(C)C)c3nccc4cc(C(=O)OC)ccc34)cc2)cc1 [Compound 59, Methyl 1-(N-((4′-(2-methoxyethoxy)-[1,1-biphenyl]-4-yl)methyl)-3,3-dimethylbutanamido)isoquinoline-6-carboxylate]",1000 to 10000 nM
6,"COC(=O)c1ccc2c(N(Cc3ccc(-c4cnc(OC)c(F)c4)cc3)C(=O)CC(C)(C)C)nccc2c1 [Compound 35, Methyl 1-(N-(4-(5-fluoro-6-methoxypyridin-3-yl)benzyl)-3,3-dimethylbutanamido)isoquinoline-6-carboxylate]",≤ 1000 nM
7,"COC(=O)c1ccc2c(N(Cc3ccc(-c4ccc5c(c4)CCN5)cc3)C(=O)CC(C)(C)C)nccc2c1 [Compound 63, Methyl 1-(N-(4-(indolin-5-yl)benzyl)-3,3-dimethylbutanamido)isoquinoline-6-carboxylate]",≤ 1000 nM
8,"COCCc1ccc(-c2ccc(CN(C(=O)CC(C)(C)C)c3nccc4cc(C(=O)OC)ccc34)cc2)cc1 [Compound 62, Methyl 1-(N-((4′-(2-methoxyethyl)-[1,1′-biphenyl]-4-yl)methyl)-3,3-dimethylbutanamido)isoquinoline-6-carboxylate]",≤ 1000 nM
9,"COC(=O)c1ccc2c(N(Cc3ccc(-c4ccc(OCCO)cc4)cc3)C(=O)CC(C)(C)C)nccc2c1 [Compound 60, Methyl 1-(N′-((4′-(2-hydroxyethoxy)-[1,1′-biphenyl]-4-yl)methyl)-3,3-dimethylbutanamido)isoquinoline-6-carboxylate]",1000 to 10000 nM
10,"COC(=O)c1ccc2c(N(Cc3ccc(-c4ccc5c(c4)OCCO5)cc3)C(=O)CC(C)(C)C)nccc2c1 [Compound 48, Methyl 1-(N-(4-(2,3-dihvdrobenzo[b][1,4]dioxin-6-yl)benzyl)-3,3-dimethylbutanamido)isoquinoline-6-carboxylate]",≤ 1000 nM
11,"CCOC(=O)c1ccc2c(N(Cc3ccc(-c4ccc(OC)c(C)c4)cc3)C(=O)C3CCCCC3)cccc2n1 [Compound 23, Ethyl 5-(N-((4′-methoxy-3′-methyl-[1,1′-biphenyl]-4-yl)methyl)cyclohexanecarboxamido) quinoline-2-carboxylate]",1000 to 10000 nM
12,"COC(=O)c1ccc2c(N(C[C@H]3CC[C@H](c4ccc(OC)c(C)c4)CC3)C(=O)[C@H]3CC[C@H](O)CC3)nccc2c1 [Compound 99, Methyl 1-(trans-4-hydroxy-N-((trans-4-(4-methoxy-3-methylphenyl)cyclohexyl)methyl)cyclohexanecarboxamido) isoquinoline-6-carboxylate]",≤ 1000 nM
13,"COC(=O)/C=C/c1ccc2c(N(Cc3ccc(-c4ccc(OC)c(C)c4)cc3)C(=O)CC(C)(C)C)nccc2c1 [Compound 102, (E)-Methyl 3-(1-(N-((4′-methoxy-3′-methyl-[1,1′-biphenyl]-4-yl)methyl)-3,3-dimethylbutanamido)isoquinolin-6-yl)acrylate]",1000 to 10000 nM
14,"COC(=O)c1ccc2c(N(Cc3ccc(-c4cnc(OC)c(Cl)c4)cc3)C(=O)CC(C)(C)C)nccc2c1 [Compound 36, Methyl 1-(N-(4-(5-chloro-6-methoxypyridin-3-yl)benzyl)-3,3-dimethylbutanamido)isoquinoline-6-carboxylate]",≤ 1000 nM
15,"COC(=O)c1ccc2c(N(Cc3ccc(-c4ccc(OC(F)(F)F)c(Cl)c4)cc3)C(=O)CC(C)(C)C)nccc2c1 [Compound 41, Methyl 1-(N-((3′-chloro-4′-(trifluoromethoxy)-[1,1′-biphenyl]-4-yl)methyl)-3,3-dimethylbutanamido)isoquinoline-6-carboxylate]",≤ 1000 nM
16,"COC(=O)/C=C/c1ccnc(N(C[C@H]2CC[C@H](c3ccc(OC)c(C)c3)CC2)C(=O)C2CCCCC2)c1 [Compound 18, (E)-Methyl 3-(2-(N-((trans-4-(4-methoxy-3-methylphenyl)cyclohexyl)methyl)cyclohexanecarboxamido)pyridin-4-yl)acrylate]",≤ 1000 nM

# Now from value to compound:
row,EC50,Structure (SMILES)
1,≤ 1000 nM,"COC(=O)c1ccc2c(N(Cc3ccc(-c4ccc(OC)c(C)c4)cc3)C(=O)C3CCCCC3)nccc2c1 [Compound 20, Methyl 1-(N-((4′-methoxy-3′-methyl-[1,1′-biphenyl]-4-yl)methyl)cyclohexanecarboxamido) isoquinoline-6-carboxylate]"
2,1000 to 10000 nM,"COC(=O)c1ccc2c(N(Cc3ccc(-c4ccc(OC)c(C)c4)cc3)C(=O)CC3COC3)nccc2c1 [Compound 83, Methyl 1-(N-((4′-methoxy-3′-methyl-[1,1′-biphenyl]-4-yl)methyl)-2-(oxetan-3-yl)acetamido)isoquinoline-6-carboxylate]"
3,≤ 1000 nM,"COC(=O)c1ccc2c(N(Cc3ccc(-c4ccc(OC)c(C)c4)cc3)C(=O)CC(C)(C)C)nccc2c1 [Compound 19, Methyl 1-(N-((4′-methoxy-3′-methyl-[1,1′-biphenyl]-4-yl)methyl)-3,3-dimethylbutanamido)isoquinoline-6-carboxylate]"
4,≤ 1000 nM,"COC(=O)c1ccc2c(N(Cc3ccc(-c4ccc(OC)c(C)c4)cc3)C(=O)CC3CCCC3)nccc2c1 [Compound 72, Methyl 1-(2-cyclopentyl-N-((4′-methoxy-3′-methyl-[1,1′-biphenyl]-4-yl)methyl)acetamido)isoquinoline-6-carboxylate]"
5,≥ 10000 nM,"COC(=O)c1ccc2c(N(Cc3ccc(-c4ccc(OC)c(C)c4)cc3)C(=O)CCO)nccc2c1 [Compound 84, Methyl 1-(3-hydroxy-N-((4′-methoxy-3′-methyl-[1,1′-biphenyl]-4-yl)methyl)propanamido) isoquinoline-6-carboxylate]"
6,≤ 1000 nM,"COC(=O)c1ccc2c(N(Cc3ccc(-c4ccc5c(c4)CCO5)cc3)C(=O)CC(C)(C)C)nccc2c1 [Compound 46, Methyl 1-(N′-(4-(2,3-dihydrobenzofuran-5-yl)benzyl)-3,3-dimethylbutanamido)isoquinoline-6-carboxylate]"
7,≤ 1000 nM,"COC(=O)c1ccc2c(N(Cc3ccc(-c4ccc(OC)c(C)c4)cc3)C(=O)c3ccccc3)nccc2c1 [Compound 73, Methyl 1-(N-((4′-methoxy-3′-methyl-[1,1′-biphenyl]-4-yl)methyl)benzamido)isoquinoline-6-carboxylate]"
